The record followed here is patent publication US20250352524A1, “PREVENTION OF METASTATIC OUTGROWTH USING TEAD INHIBITORS” (Georgetown University, priority 2024, published 2025).

One data set relates to E0771 cells. Nature of the data set: Real Time Cell Analysis, proliferation of E0771 cells. It is filed as cell-based, mouse. The note with it: increasing doses of VT107, cell index. The procedure:
E0771 cells were injected into the mammary fat pad of C57BL/6 mice (Johnstone et al., 2015). When primary tumors became palpable at 3 weeks, mice were treated daily with VT107 or vehicle control. Mice weights were monitored throughout treatment (FIG. 8, Panel B). Primary tumors were surgically resected at week 4 and mice were euthanized at week 6 to inspect lungs for metastases (FIG. 9, Panel A)
Cell analysis was done using E-plates from xCELLigence, (Agilent, #5469830001) according to the manufacturer's protocol. For cell cytotoxicity, cancer cells (10,000-25,000 cells per well) were seeded and allowed to attach for 1-2 hours prior to the addition of immune cells and/or drug treatments. For cell proliferation, cancer cells were seeded at 5,000-10,000 cells per well with incremental doses of drug treatments or DMSO as a vehicle control. Cell index was measured by changes in electric impedance at 15 min intervals. TEAD inhibitors were obtained from Vivace therapeutics.

The subject of another data set is T-cells. Nature of the data set: Degranulation assay of T-cells co-cultured with 4T1 cells. It is filed as cell-based, BALB/c mice. As for the experimental part:
(§1) The hippo pathway has been implicated in T-cell development and function (Du et al., 2014; Ueda et al., 2012). For example, YAP expression is essential for tumor immune suppression by Treg cells that attenuates CD8 T-cell immunity (Geng et al., 2017; Ni et al., 2018; Lebid et al., 2020). […] To investigate whether VT107 directly affected T-cells, T-cells treated with VT107 were co-cultured with 4T1 cells in 2D for 72 hours. […] To further confirm T-cell activation upon TEAD activity reduction, we used Jurkat cells, a CD4 positive human lymphoma cell line (Schneider et al., 1977). […] However, here we show the specific effect of TEAD reduction on granzyme gene expression and degranulation that result in the killing of cancer cells.
T-cells were isolated from the spleens of naïve BALB/c as described above and treated in vitro with DMSO control or VT107 for 24 hours. T-cells were then co-cultured with 4T1 cells with the same treatment conditions. After 72 hours, all cells were collected and subdued to flow cytometry using anti-CD45-AF700 (Biolegend, 103128), anti-CD8-BV785 (Biolegend, 100750), anti-CD4-Pacific Blue (Biolegend, 116007), anti-CD107a-PE/Cy7 (Biolegend, 121620), and Helix NP Blue (Biolegend, 425305). Analysis was performed on the BD FACSymphony Δ3 flow cytometer analyzer, and results were analyzed using FCS Express 7 Research (De Novo Software).

Another data set deals with Jurkat cells. Nature of the data set: Real Time Cell Analysis, cytotoxicity of Jurkat cells towards 4T1 cells. The note with it: 1 μM VT107 for 24 hours. It counts as cell-based, human. As for the experimental part: as §1
Cell analysis was done using E-plates from xCELLigence, (Agilent, #5469830001) according to the manufacturer's protocol. For cell cytotoxicity, cancer cells (10,000-25,000 cells per well) were seeded and allowed to attach for 1-2 hours prior to the addition of immune cells and/or drug treatments. For cell proliferation, cancer cells were seeded at 5,000-10,000 cells per well with incremental doses of drug treatments or DMSO as a vehicle control. Cell index was measured by changes in electric impedance at 15 min intervals. TEAD inhibitors were obtained from Vivace therapeutics. […]

The test system of data set [1] is DCIS and DCIS-Δ4 mixed 3D spheres. Nature of the data set: Invasion of DCIS and DCIS-Δ4 mixed 3D spheres in collagen:matrigel mix. It counts as cell-based, human. The procedure: To determine iTEAD effect on lung immune microenvironment at steady state, naïve C57/BL6 mice were treated with iTEAD. […] In the absence of cancer cells in these naïve mice, no change in CD8+ T-cells was observed between treatment groups. […] On the cancer cell front, TEAD inhibition had no effect on proliferation yet reduced migration and 3D spheroid collective invasion of breast cancer cells in vitro.

VT107: the “proliferation of E0771 in vitro” value in the data set on E0771 cells is listed as “did not impact”. Further, the “T-cell degranulation marker CD107a” value in the data set with T-cells (1 μM VT107, co-culture with 4T1 cells 72 hours, flow cytometry) is recorded as “significantly increased”. In the data set with T-cells (T-cells treated with VT107, co-cultured with 4T1 cells in 2D for 72 hours), the IFNγ levels entry is reported as “no change”. The “Jurkat cytotoxicity towards co-cultured 4T1 cells” value with Jurkat cells is “enhanced cytotoxicity”. In data set [1], the “migration of breast cancer cells in vitro” value is “reduced”. Besides, in data set [1] (vs control), the “3D spheroid collective invasion” value is “reduced”.
